Measurements as given in patent US20230173071A1, “TREATMENT OF MYOPIA AND OTHER OCULAR CONDITIONS USING SINGLET OXYGEN GENERATED FROM DYES ACTIVATED BY NEAR-INFRARED LIGHT” (California Institute of Technology, priority 2018, published 2023).

Assays:
[1] = Dye solubility observations; type: physicochemical
Protocol: ICG is a NIR-absorbing heptamethine dye that has the potential of generating singlet oxygen upon irradiation and has a λmax ranging from 780-810 nm depending on the context. […] BAC along with other cationic surfactants (alkyl ammonium salts, polyoxyethylene alkyl amines, amide linked alkyl amines, alkyl imidazolines, etc.) aid in the solubility of the dye in aqueous media. […] The standard formulation used in these studies consisted of 0.05 to 5.0 mg/mL ICG and 0.01% to 0.001% BAC in solution. D2O was selected as the solvent to increase the lifetime of singlet oxygen and therefore the crosslinking capability of the species. […] Fluorinated solvents (perfluorohexane, perfluorotripentylamine, etc.) are also of interest due to their ability to dissolve more oxygen and their robust inertness.

[2] = Singlet oxygen sensor green (SOSG) fluorescence measurements; type: physicochemical; settings: for SOSG fluorescence emission at 525 nm: dye 0.1 mg/mL, 810 nm, 200 mW, 488 nm excitation
Protocol: Singlet oxygen sensor green (SOSG) is a common reagent for measuring singlet oxygen generation in aqueous systems. The marker becomes more fluorescent as singlet oxygen is generated. All time measurements were done in triplicate (100 μL aliquots from an irradiated sample). A Molecular Devices Flexstation was used to read out the fluorescence measurements with the excitation/emission at 488/525 nm.
SOSG fluorescence turn on was initially measured using riboflavin as a point of comparison for the efficacy of ICG irradiations. Measurements used a dye concentration of 0.1 mg/mL and the irradiation the parameters (3 mW at 365 nm) used in the FDA approved procedure for keratoconus (corneal expansion). The mixture was stirred during irradiation.
Stocks of the ICG formulations (both H2O and D2O) were made to be 1 mg/mL ICG and 0.01% benzalkonium chloride (BAC). These were diluted to a dye concentration of 0.1 mg/mL for the SOSG tests with no adjustments for the BAC. The sample was irradiated with 810 nm light at 200 mW and stirred throughout the irradiation.

[3] = Singlet oxygen generation by DPBF decay (UV-Vis), 810 nm LED; type: physicochemical
Source text: To evaluate the efficiency of singlet oxygen generation by ICG and an analog (IR-820) in vitro, the singlet oxygen generation was monitored. 1,3-diphenylisobenzofuran (DPBF), a compound that decays in the presence of singlet oxygen, and singlet oxygen sensor green (SOSG), a dye that increases fluorescence in the presence of singlet oxygen, were used as markers to indicate singlet oxygen generation by ICG and IR-820. […] For SOSG analysis, the fluorescence turn-on in H2O and D2O was compared to that observed when riboflavin—an FDA approved dye used in conjunction with UV light to treat keratoconus (corneal expansion)—was usedIn all cases, an increase in fluorescence emission at 525 nm was observed (using a 488nm excitation).

porcine sclera = test: Young's Modulus measurement (Instron) of irradiated porcine sclera strips; parameters: species or system porcine (pig); settings: porcine sclera strips soaked in 2 mg/mL ICG, 0.01% BAC in D2O; 810 nm LED 200 mW, total 10 minutes
Protocol: All Young's Modulus values were determined using an Instron equipped with screw side action tensile grips and a load cell rated for max 100 N. Rates of pulling were between 3 mm/minute and 5 mm/minute. The software calculated the Young's Modulus from the force vs. distance/time.
The treatment was also tested on a more biologically relevant sample—unscalded porcine (pig) eyes (Sierra For Medical Science). Eyes were cut around the globe to make a 1 cm×5-6 cm strip of pig sclera for testing. Measurements were accumulated over several batches of eyes. Storage solutions before treatment (irradiation) contained 20% Dextran (MW ˜40-45k) in D2O while post-treatment storage was Dulbecco's buffer with 20% Dextran (MW ˜40-45k). An ICG/BAC/D2O soak solution was made to the concentration of 2 mg/mL ICG and 0.01% BAC. Strips for treatment were soaked in the solution for 0.5-2 hours. Irradiation was carried out similarly to the bovine gelatin strips—810 nm LED, 200 mW, and a 1 cm×1 cm irradiation zone. To ensure sufficient irradiation without sample dehydration, irradiation duration was kept at 5 minutes but performed twice—i.e. the sample was moved down 1 cm every 5 minutes and then the process was repeated—in order to give a total of 10 minutes of irradiation. […] The Young's Modulus values were calculated by the software and compiled to compare untreated vs. treated strips. […]

CC1(C)C(/C=C/C=C/C=C/C=C2\N(CCCCS(=O)(=O)O)c3ccc4ccccc4c3C2(C)C)=[N+](CCCCS(=O)(=O)[O-])c2ccc3ccccc3c21 [ICG, indocyanine green]
solubility in aqueous media ([1]; BAC compared with sodium iodide): greater increases in solubility
solubility in aqueous media ([1]; with BAC and other cationic surfactant additives): enhanced solubility
SOSG fluorescence emission at 525 nm ([2]; D2O): large increase in fluorescence activation
SOSG fluorescence emission at 525 nm ([2]; H2O): increase
singlet oxygen generation (SOSG turn-on) relative to riboflavin ([2]; only in the presence of D2O): efficient enough to compete with the turn-on observed in the presence of riboflavin
ICG and DPBF signal (UV-Vis) upon irradiation ([3]; 810 nm, 375 mW LED, in water): decrease
singlet oxygen generation (DPBF analysis) ([3]; in H2O or D2O): singlet oxygen generation was observed
increase of the Young's Modulus, irradiated (treated) vs non-irradiated (untreated) sample (porcine sclera): 21%
